The values that follow come from US20100080862A1, “COMPOSITIONS AND FOODS FOR IMPROVING LIPID METABOLISM” (Kirin Beer Kabushiki Kaisha, priority 2002, published 2010).

The test system of one test is human PPARγ. In words: PPARγ agonist screening system, PPRE luciferase reporter in CV-1 cells (Example 9). Type of test: cell-based. As to conditions: for PPARγ/RXR alpha activating activity compared to that with 1 μM pioglitazone: at a concentration of 10 μm; for PPARγ/RXR alpha activating activity (relative luciferase activity): concentrations of 1, 5, 10, and 50 μM, 48 hours. The text has this:
In order to construct a human PPARγ expression plasmid, a PPARγ ORF was cloned from the human heart cDNA library (Gibco). After the sequence was confirmed, the cloned ORF was ligated to the NheI-SalI site of the expression vector pCI neo (Promega). The sequences of primers used for the cloning were as follows: […]
Next, in order to construct a reporter plasmid, oligo DNAs having 3 copies of PPRE was constructed and inserted at the KpnI-BglII site of the firefly luciferase reporter vector pGL3-promoter vector (Promega), after which the sequences were confirmed. The sequences of oligo-DNAs containing PPRE are as follows:
CV-1 cells were transfected with the above-mentioned plasmid along with the renilla luciferase reporter vector pRL-SV40 vector for compensation (Promega) using Lipofect AMINE (Gibco). The CV-1 cells used were cultured at a concentration of 5×10^4 cells/ml in 2 ml of DMEM (Gibco) supplemented with 10% fetal calf serum (Gibco) and penicillin-streptomycin (10000 units and 1 mg/ml, respectively; Gibco) on a 12-well plate at 37° C. in an atmosphere of 5% CO2 on the day before transfection. After the transfection, cells for the positive control were cultured in the abovementioned DMEM medium containing 1 μm pioglitazone (Takeda). After cultivating for 48 hours, the cells were recovered and the lysate was prepared using a Dual-Luciferase reporter assay system (Promega) to measure firefly luciferase and renilla luciferase activity using a luminometer (Luminous CT-9000D, DIA-IATRON). Relative luciferase activity was obtained by dividing the value for firefly luciferase activity by the value for renilla luciferase activity.

Test [1] deals with T1, fused protein of PPARγ with yeast Gal4 protein (Homo sapiens, UniProt P37231).
T1 construct: 204a.a.-505a.a) was cloned; expressed in transfected cells; host or cells: CV-1 cells
T1 sequence (P37231 204-505): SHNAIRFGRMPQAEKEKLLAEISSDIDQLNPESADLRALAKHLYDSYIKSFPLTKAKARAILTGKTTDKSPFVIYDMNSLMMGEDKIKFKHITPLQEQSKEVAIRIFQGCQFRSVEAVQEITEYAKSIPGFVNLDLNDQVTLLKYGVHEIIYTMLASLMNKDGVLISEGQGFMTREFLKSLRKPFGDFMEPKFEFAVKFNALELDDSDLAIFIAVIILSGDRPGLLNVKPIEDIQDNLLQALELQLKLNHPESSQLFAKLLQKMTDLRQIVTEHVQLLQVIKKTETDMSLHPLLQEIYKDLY
In words: PPARγ agonist screening system consisting of a fused protein, Gal4 luciferase reporter in CV-1 cells (Example 10). Type of test: cell-based. The note with it: humulone compounds at 1, 3, and 10 μM, 48 hours. An excerpt: In order to construct a human PPARγ expression plasmid, a PPARγ ligand binding domain (LBD; 204a.a.-505a.a) was cloned from the human heart cDNA library (Gibco). After the sequence was confirmed, the cloned ORF was ligated to the BamHI-Kpn1 site of the expression vector pBind (Promega) to construct the expression vector pGR-Gal4-PPARγ which expresses a fused protein of PPARγ with yeast Gal4 protein. The sequences of primers used for the cloning are as follows: […]
Next, an N terminal sequence (1a.a-76a.a) of the human glucocorticoid receptor (GR) was ligated to the N-terminal of the Gal4 region of pBind so that the reading frame coincided with Gal4. The GR was cloned from the heart cDNA library (Gibco) using PCR. The sequences of primers used for the cloning are as follows: […]
As a reporter plasmid, firefly luciferase expression vector pG5luc (Promega) having 5 copies of the Gal4 binding site introduced into the promoter region was used. CV-1 cells were transfected with the pGR-Gal4-PPARγ and the pG5luc using Lipofect AMINE (Gibco). After the transfection, the medium was replaced with a medium (DMEN, Gibco) with addition of a test sample or control (pioglitazone), and cells were recovered after cultivation for 48 hours. After the cell recovery, cell lysate was prepared using a Dual-Luciferase reporter assay system (Promega) to measure firefly luciferase activity using a luminometer (Luminous CT-9000D, DIA-IATRON). Further, the protein concentration of the cell lysate was measured using a Dc Protein assay (BIO-RAD) to standardize the value of firefly luciferase activity for the protein concentration. The result was expressed as a relative value by setting the value of the negative control to be 1.
For orientation: A reporter such as luciferase makes a cellular process visible.

The test system of a further test is C57BL/6 mice (females). Briefly: Improving effect of fractionated lupulone on lipid metabolism in mice (Example 14). In kind it is in vivo. On the procedure:
Improving effect of a fractionated lupulone on lipid metabolism was evaluated using C57BL/6 mice (females). Namely, lupulone was purified from hop pellets (CAS pellets, a product of Saaz, Czech Republic). About 2.5 kg of hop pellets were extracted with 4 L of ethyl acetate 3 times and the extract was concentrated under the reduced pressure to obtain a dark green extract (329.17 g). A portion of the extract (262.7 g) was applied on a silica gel column for fractionation. Chromatography was carried out using a stepwise elution with a hexane-ethyl acetate mixed solution to obtain 15 fractions. The third fraction (41.8 g) was applied on a silica gel column for refractionation and a fraction eluted with a hexane:ethyl acetate (20:1) solution was recrystallized to obtain lupulone (1.88 g, white needle crystals, yield: about 0.094%). Further, 5-week-old C57BL/6NCrj female mice (8 per group) (Japan Charles River) were fed CE2 (Japan Clea) and water for 1 week ad libitum. Then, the animals were divided into 2 groups, i.e., a group fed AIN76A (described in Example 2) with addition of 0.2% cholesterol and 0.3% cellulose (referred to as “group C” hereinafter) and a group fed AIN76A with addition of 0.2% cholesterol and 0.3% lupulone (referred to as “group L” hereinafter). The diets were prepared and administered according to the methods described in Example 2. One week after feeding the test diets, the animals were dissected under non-fasting conditions.

The subject of test [2] is C57BL/6 mice fed high fat diet. In words: Oral glucose tolerance test in mice with high fat diet-induced insulin resistance (Example 15). In kind it is in vivo. Here is the method:
C57BL/6 mice were fed the high fat diet shown in Example 8 for 12 weeks to induce insulin resistance and then orally administered with the water soluble hop extract for 10 consecutive days (100 and 330 mg/kg/day). After completion of the administration, animals were fasted for 16 hours and then subjected to an oral glucose tolerance test (OGTT). […] After completion of the administration, animals were fasted for 16 hours and then subjected to an oral glucose tolerance test (OGTT). In OGTT, after blood sampling and blood sugar measurement, 1 g/kg of aqueous glucose solution was administered (at time zero), after which blood sampling and blood sugar measurement were carried out at 15, 30, and 60 minutes and blood sugar measurement was carried out at 120 minutes. Change with time in the blood insulin level was measured using an insulin measuring kit (Morinaga Seikagaku Institute).

Where [3] appears, read: purified isocohumulone 10 and 30 mg/kg/day oral, 10 days.

On to `CCC(C)C(=O)C1=C(O)C(O)(C(=O)CC=C(C)C)C(CC=C(C)C)C1=O` (stereo not drawn) [isoadhumulones, isoadhumulone], for which, in the test with human PPARγ, the “PPARγ/RXR alpha activating activity compared to that with 1 μM pioglitazone” value is “almost equivalent” and the “PPARγ/RXR alpha activating activity (relative luciferase activity)” value was “exhibited the activity”.

With `CC(C)=CCC1=C(O)[C@](O)(CC=C(C)C)C(=O)C(C(=O)CC(C)C)=C1O` [humulones, humulone], the “PPARγ activating activity (firefly luciferase, relative to negative control)” value in test [1] is recorded as “activity was confirmed”. Moreover, in the test with human PPARγ, the “PPARγ/RXR alpha activating activity compared to that with 1 μM pioglitazone” value was “almost equivalent” and the “PPARγ/RXR alpha activating activity (relative luciferase activity)” value was “exhibited the activity”.

For the compound `CC(C)=CCC1=C(O)C(CC=C(C)C)(CC=C(C)C)C(=O)C(C(=O)CC(C)C)=C1O` [lupulone], in the test on C57BL/6 mice (females) (group L 0.3% lupulone in AIN76A + 0.2% cholesterol, one week, non-fasting), the “cholesterol content per g of liver” value is “significant decrease”. In the test on C57BL/6 mice (females) (group L 0.3% lupulone in diet), the body weight result is “significant decrease” and the “body weight gain per calorie intake” value is “significantly reduced”.

In the case of `CC(C)=CCC(=O)C1(O)C(O)=C(C(=O)C(C)C)C(=O)C1CC=C(C)C` (stereo not drawn) [isocohumulones, isocohumulone], in test [1], the “PPARγ activating activity (firefly luciferase, relative to negative control)” value was “activity was confirmed”. In addition, in the test on human PPARγ, the “PPARγ/RXR alpha activating activity compared to that with 1 μM pioglitazone” value is reported as “almost equivalent” and the “PPARγ/RXR alpha activating activity (relative luciferase activity)” value is listed as “exhibited the activity”. Besides, in test [2] (oral, 10 consecutive days, water soluble extract 100 and 330 mg/kg/day, purified isocohumulone 10 and 30 mg/kg/day), the “insulin resistance (blood insulin concentration upon OGTT)” value is reported as “amelioration”. For the same compound, the “glucose tolerance (blood sugar level upon OGTT)” value in test [2] (oral, 10 consecutive days, water soluble extract 100 and 330 mg/kg/day, purified isocohumulone 10 and 30 mg/kg/day, 1 g/kg glucose after 16 h fasting) is reported as “Amelioration”. Further, in test [2] (setting [3]), the “insulin concentration before the administration (of glucose)” value is listed as “significantly decreased” and the “insulin concentration thereafter (after glucose administration)” value is “tended to keep decreasing”.

Regarding `CC(C)=CCC1=C(O)C(O)(CC=C(C)C)C(=O)C(C(=O)C(C)C)=C1O` (stereo not drawn) [cohumulones, cohumulone], in test [1], the “PPARγ activating activity (firefly luciferase, relative to negative control)” value was “activity was confirmed”. In the test with human PPARγ, the “PPARγ/RXR alpha activating activity compared to that with 1 μM pioglitazone” value is recorded as “almost equivalent” and the “PPARγ/RXR alpha activating activity (relative luciferase activity)” value was “exhibited the activity”.

`CC(C)=CCC(=O)C1(O)C(O)=C(C(=O)CC(C)C)C(=O)C1CC=C(C)C` (stereo not drawn) [isohumulones, isohumulone]: the “PPARγ activating activity (firefly luciferase, relative to negative control)” value in test [1] is on record as “activity was confirmed”. For the same compound, in the test on human PPARγ, the “PPARγ/RXR alpha activating activity compared to that with 1 μM pioglitazone” value is listed as “almost equivalent” and the “PPARγ/RXR alpha activating activity (relative luciferase activity)” value is listed as “exhibited the activity”.
